What was measured:
[1] = test system: high and very high cardiovascular risk patients intolerant to statins; set-up: method as in PMID 36876740; conditions: statin-intolerant patients, LDL-C ≥100 mg/dL; cited from earlier work
rhesus monkeys = test system: rhesus monkeys; set-up: method as in PMID 36873173; conditions: two weeks; cited from earlier work
[2] = Copper-induced LDL oxidation, agarose gel electrophoresis; conditions: varying concentrations, copper 5 μM
Procedure: Prior to oxidation, EDTA was removed from LDL solutions (YB-001; Yiyuan Biotechnologies, Guangzhou, China). Subsequently, LDL solutions at a concentration of 0.2 mg/mL were incubated with varying concentrations of ISOGK in PBS for one h at 37 °C. The oxidation process was initiated by combining both native LDL and LDL pretreated with ISOGK with copper sulfate (99.0% purity; Jinshanting New Chemical Reagent Factory, Shanghai, China) to achieve a final copper concentration of 5 μM in PBS. This mixture was then incubated at 37 °C. Agarose gel electrophoresis was performed utilizing 0.5% agarose gels prepared in a sodium barbital buffer, following the stipulated electrophoretic methodology. The procedure was carried out in a 0.075 M sodium barbital buffer at a constant voltage of 55 V for a duration of one h. The relative electrophoretic mobility (REM) was determined by calculating the ratio of the migration distance of oxidized LDL to that of native LDL.

CC(C)(CCCCCC(O)CCCCCC(C)(C)C(=O)O)C(=O)O [Bempedoic acid, bempedoic acid]
primary composite endpoint vs placebo [1]: slight reduction in the primary composite endpoint

CC(C)c1c(C(=O)Nc2ccccc2)c(-c2ccccc2)c(-c2ccc(F)cc2)n1CC[C@@H](O)C[C@@H](O)CC(=O)O [atorvastatin]
LDL-C reduction from the baseline (rhesus monkeys): 19.4%

Vitamin E [reference compound]
antioxidant activity against copper-induced LDL oxidation (REM) [2]: retards LDL
